# Data as given in patent publication US20220305093A1, “NK-LYSIN PEPTIDE COMPOSITIONS AND METHODS FOR THEIR USE AS ANTIMICROBIAL/ANTIVIRAL AGENTS” (priority 2021, published 2022).
# Where two headings read alike, the source gives them in different places. Residues, ends and D or L forms follow the SMILES beside them.
# Tests used:
# [1] = test system: gram-positive and gram-negative bacteria; assay: organism not typed
# Source text: The gram-positive bacterial strains utilized were Streptococcus pyogenes (ATCC 19615) and Streptococcus mutans (isolate obtained from a patient at King Abdul-Aziz hospital). The gram-negative bacterial strains used included Salmonella typhimurium (ATCC 14028), Escherichia coli (ATCC 11775), Pseudomonas aeruginosa (ATCC 9027), Klebsiella oxytoca (ATCC 49131), Shigella sonnei (ATCC 25931), and Klebsiella pneumoniae (patient isolate). Tryptic soy broth (TSB) was used to grow all bacterial strain overnight, after which the bacteria were washed using phosphate-buffered saline (PBS, NaCl 8 g/L, KCl 0.2 g/L, Na2HPO4 1.4 g/L, KH2PO4 0.24 g/L), and then diluted in the same buffer with 1/1000 TSB to an OD600 nm of 0.08-0.1 (1×10^8) colony-forming units (CFU)/ml, which was determined after performing retrospective plate counts on tryptic soy agar. Unless otherwise noted, the experiments in the following examples employed this inoculum preparation apart from when minimum inhibitory and bactericidal concentrations were determined, which employed cells in Muller Hinton broth. […]
# Mueller Hinton broth (MHB) comprising 0.01% v/v acetic acid (Sigma Aldrich; St Louis, Mo.) and 0.2% w/v bovine serum albumin (Sigma Aldrich). […] The treated plates were incubated at […] and optical densities were determined for each well at 0 minutes, 1, 2 and 3 hours and after an overnight incubation. […]
# [2] = test system: Pseudomonas aeruginosa (ATCC 9027); assay: microbe, parasite or virus in culture
# Experimental: (§1) The minimum inhibitory concentration (MIC) is defined as the lowest concentration of an antimicrobial ingredient or agent that is bacteriostatic (prevents the visible growth of bacteria).
# (§2) Mueller Hinton broth (MHB) comprising 0.01% v/v acetic acid (Sigma Aldrich; St Louis, Mo.) and 0.2% w/v bovine serum albumin (Sigma Aldrich). Equal concentrations of bacteria were plated in wells of standard tissue culture microplates at a density of 0.5×10^8 CFU ml^−1 in MHB per well. Treatments were equivalent volumes (50 μl) of NK-lysin peptides in concentrations of 0 to 150 μg/ml, or no NK-lysin peptides for control wells. The treated plates were incubated at […] and optical densities were determined for each well at 0 minutes, 1, 2 and 3 hours and after an overnight incubation.
# [3] = test system: Salmonella typhimurium (ATCC 14028); assay: microbe, parasite or virus in culture
# Experimental: as §1, §2
# [4] = test system: Escherichia coli (ATCC 11775); assay: microbe, parasite or virus in culture
# Experimental: as §1, §2
# [5] = test system: Streptococcus mutans (isolate); assay: microbe, parasite or virus in culture
# Experimental: as §1, §2
# [6] = test system: Streptococcus pyogenes (ATCC 19615); assay: microbe, parasite or virus in culture
# Experimental: as §1, §2
# [7] = test system: Klebsiella pneumoniae (patient isolate); assay: microbe, parasite or virus in culture
# Experimental: as §1, §2
# [8] = test system: Klebsiella oxytoca (ATCC 49131); assay: microbe, parasite or virus in culture
# Experimental: as §1, §2
# [9] = test system: Shigella sonnei (ATCC 25931); assay: microbe, parasite or virus in culture
# Experimental: as §1, §2
# [10] = test system: S. typhimurium (ATCC 14028); format: cell-based, Salmonella typhimurium
# Experimental: Screening of NK-lysin peptides was carried out against gram-negative S. typhimurium (ATCC 14028) bacteria. Overnight cultivation of the bacteria was carried out at a temperature of 3TC. A bacterial suspension was created in 10 mM sodium phosphate buffer pH 7.0 having a density of (2×10^6 CFU ml^−1) and plated on Muller-Hinton (MH) agar plates to inoculate. After the plates were dry, antibiotics discs of various concentrations (0 to 150 μg/ml) of antibiotic or NK-lysin peptides were applied to the surface of the inoculated plates. The plates were cultured overnight at 3TC and observed for restriction of growth by determining the diameter of bacterial-free zones surrounding each disc. Ceftazidime antibiotic was employed as a positive control.
# [11] = test system: Salmonella typhimurium (ATCC 14028); assay: Growth kinetic activity at 2×MIC; format: cell-based
# Experimental: (§3) The kinetic killing abilities of NK-lysin peptides were gauged in accordance with the Clinical Laboratory and Standard Institute (CLSI) broth micro-dilution technique presented by Wiegand and Hancock (2008). Mueller Hinton broth comprising 0.01% v/v acetic acid was prepared with 0.2% w/v bovine serum albumin, as above. […] The plate was then incubated at room temperature. […] A distinct triplicate was used to repeat the kinetic potential of NK-lysin peptides thrice.
# [12] = test system: Streptococcus mutans (isolate); assay: Growth kinetic activity at 2×MIC; format: cell-based; conditions: time dependent, FIG. 3B
# Experimental: as §3
# [13] = test system: Salmonella typhimurium (ATCC 14028); assay: Leakage of intracellular contents (DNA/RNA release, OD 260 nm); format: cell-based; conditions: 15 min
# Experimental: The protocol of Carson et al. (Antimicrob Agents Chemother. 2002 June; 46(60:1914-20) was used with some changes to perform the assay for determining the loss of DNA/RNA. In short, 50 μl of bacteria was combined with the same volume of NK-lysin peptides at 2×MIC and then incubated at room temperature. Samples were harvested at 15, 30 and 60 minutes, diluted 1:10 and then filtered across 0.22 μm pores (Merck; Tullagreen, Ireland). The measurement of the O.D 260 nm of the filtrates was carried out over NanoDrop plate (Greiner Bio-One GmbH; Frickenhausen, Germany). The results were presented as a ratio to the original OD260 nm. 16S rRNA Amplification Two universal primer sets 341F and 534 R were used to amplify 500 bp of 16s rRNA gene of Salmonella typhimurium. The forward primer had the following sequence: 5′-CCT ACG GGA GGC AGC AG-3′ (SEQ ID NO:04), whereas the reverse primer had the following: 5′-ATT ACC GCG GCT GCT GGC-3′ (SEQ ID NO:05). PCR amplification reactions were carried out in 50 μl of overall volume with a reaction mixture comprising 50 ng template DNA, 10 pmol each primer, 0.25 U Taq DNA polymerase, 10 mM Tris-HCl (pH.9.0), […] dNTPs mix, 30 mM KCl, 1.5 mM MgCl2 in sterile nuclease-free water. […]
# Rotavirus (strain SA-11) = format: cell-based
# Experimental: Rotavirus (strain SA-11) was activated with 10 μg/mL trypsin before propagation on MA-104 cells derived from kidney cells of African […] monkey. MA-104 cells were cultivated in tissue culture flasks in the presence of less than 5% CO2 at 37° C. in Dulbecco's Minimal Essential Medium (DMEM) (Sigma-Aldrich) The DMEM included 1% antibiotic antimycotic solution and 10% heat inactivated fetal bovine serum (A5955, Sigma-Aldrich). Centrifugation of rotavirus was performed at 300×g for 5 mins in order to purify by removal of cell debris. The supernatant was utilized as a stock suspension of virus after filtration through 0.2 μm membrane. The stock virus contained 10^6-10^7 TCID50 per mL and was stored at −80° C. for future use.
# In order to activate infectivity, rotavirus was placed in a solution of 10 μg/mL trypsin at 37° C. for 30 min. A 100 μl aliquot of the activated rotavirus sa-11 was mixed with and equal volume of 80 μg/ml NK-lysin peptides for a final rotavirus concentration of 1×10^6 TCID50/ml. The rotavirus and NK-lysin peptide mixture was first incubated for at 37° C. for 1 hour. Serial dilutions of rotavirus and rotavirus+peptide mixtures were prepared. Aliquots 100 μl of the 10-fold serial dilutions were then added to 96-well tissue culture plates comprising monolayers of MA-104 cells at a density of approximately 5.0×10^4 cells per well. Eight wells were used for each sample to make sure sufficient assay precision was achieved. The microplates were incubated for 5 days at 37° C. under 5% CO2 atmosphere. During the 5-day incubation, cells were monitored daily under a microscope to check for a cytopathic effect (CPE). A tissue culture infectious dose (TCID) was the infectious dose/mL of tissue culture equal to 50 percent of wells showing CPE at a specific dilution and was expressed as the TCID50 for that dilution. The highest dilutions in which 50% or higher wells were read as the TCID50.
# [14] = test system: S. typhimurium (ATCC 14028); assay: Colony count assays; format: cell-based, Salmonella typhimurium; conditions: 30 μg/ml
# Experimental: Antimicrobial activity of NK-lysin peptides was assayed in cultures of S. typhimurium (ATCC 14028). The bacteria were maintained in tryptic soy broth at 3TC and were grown to the mid-logarithmic phase prior to testing. To determine the activity of NK-lysin peptides, colony count assays were carried out. Bacteria were pelleted and then re-suspended in a 10 mM sodium phosphate buffer pH 7.0 and then diluted to a density of (2×10^6 CFU ml^−1 in MHB. 50 μl of NK-lysin peptide were combined with an equal volume of bacterial culture and incubated at room temperature for 3 hours. A 1 μl sample of each culture was then diluted by 1000 (in 1 ml) and spread over MH agar plates. Colonies were counted after 24 hours at room temperature to determine the bacteria that survived.
# [15] = Pseudomonas aeruginosa, ATCC9027
# [16] = Streptococcus pyogenes, ATCC19615
# [17] = 80 μg/ml peptide, Rotavirus (SA-11)
compound,measurement,setting,value
"NC[C@H]1O[C@H](O[C@H]2[C@H](O)[C@@H](O[C@H]3O[C@H](CO)[C@@H](O)[C@H](N)[C@H]3O)[C@H](N)C[C@@H]2N)[C@H](O)[C@@H](O)[C@@H]1O [Kanamycin, kanamycin, reference compound]",MIC,[1],7.8 to 62.5 µg/mL
same,MIC,[2]; P.aeruginosa ATCC 9027,62.5 ± 0.00 µg/mL
same,MBC,[2]; [15],62.5 µg/mL
same,MIC,[2]; [15],62.5 µg/mL
same,MBC,[3]; Salmonella enterica,62.5 µg/mL
same,MIC,[3]; Salmonella enterica,62.5 µg/mL
same,MBC,"[4]; Escherichia coli, ATCC11775",15.6 µg/mL
same,MIC,"[4]; Escherichia coli, ATCC11775",15.62 ± 0.011 µg/mL
same,MIC,[5]; St. mutans (isolate),62.5 ± 0.023 µg/mL
same,MBC,[5]; Streptococcus mutans,62.5 ± 0.23 µg/mL
same,MIC,[5]; Streptococcus mutans,62.5 µg/mL
same,MIC,[6]; St. pyogenes ATCC 19615,62.5 ± 0.00 µg/mL
same,MBC,[6]; [16],62.5 µg/mL
same,MIC,[6]; [16],62.5 µg/mL
same,MIC,[7]; K.Pneumonia (isolate),31.25 ± 0.00 µg/mL
same,MBC,[7]; Klebsiella pneumoniae,31.2 µg/mL
same,MIC,[7]; Klebsiella pneumoniae,31.2 µg/mL
same,MIC,[8]; K. oxytoca ATCC 49131,31.25 ± 0.00 µg/mL
same,MBC,"[8]; Klebsiella oxytoca, ATCC49131",31.2 µg/mL
same,MIC,"[8]; Klebsiella oxytoca, ATCC49131",31.2 µg/mL
same,MIC,[9]; Sh. sonnei ATCC 25931,7.81 ± 0.026 µg/mL
same,MBC,"[9]; Shigella sonnei, ATCC25931",7.81 ± 0.026 µg/mL
same,MIC,"[9]; Shigella sonnei, ATCC25931, Sh. sonnei ATCC 25931",7.8 µg/mL
"CC(C)(O/N=C(\C(=O)N[C@@H]1C(=O)N2C(C(=O)[O-])=C(C[n+]3ccccc3)CS[C@H]12)c1csc(N)n1)C(=O)O [ceftazidime, reference compound]",clear zone diameter,"[10]; discs on MH agar, overnight",~21 mm
gentamicin [reference compound],clear zone diameter,"[10]; discs on MH agar, overnight",28 mm
CC[C@H](C)[C@H](NC(=O)[C@H](C)NC(=O)[C@H](CC(=O)O)NC(=O)[C@H](CCC(=O)O)NC(=O)[C@H](CC(=O)O)NC(=O)[C@@H]1CCCN1)C(=O)N[C@@H](CC(N)=O)C(=O)N[C@@H](CC(N)=O)C(=O)N[C@@H](C)C(=O)N[C@@H](CC(C)C)C(=O)N[C@@H](CC(N)=O)C(=O)N[C@@H](CCCCN)C(=O)N[C@H](C(=O)N[C@@H](CS)C(=O)N[C@@H](CO)C(=O)N[C@H](C(=O)NCC(=O)N[C@@H](CCCNC(=N)N)C(=O)N[C@@H](CCCNC(=N)N)C(=O)N[C@@H](CCC(N)=O)C(=O)N[C@@H](CCCNC(=N)N)C(=O)N[C@@H](CO)C(=O)N[C@H](C(=O)N[C@@H](CS)C(=O)N[C@@H](CCCCN)C(=O)N[C@@H](CCC(N)=O)C(=O)N[C@@H](CC(C)C)C(=O)N[C@@H](CC(C)C)C(=O)N[C@@H](CCCCN)C(=O)N[C@@H](CCCCN)C(=O)O)[C@@H](C)CC)[C@@H](C)O)C(C)C [Chicken NK-lysin] (H-PDEDAINNALNKVCSTGRRQRSICKQLLKK-OH; N-terminus and C-terminus assumed),growth inhibition,"[11]; 2×MIC, after 4 hr of incubation",Complete inhibition
same,lethality,[11]; 1 hr after treatment,high lethality
same,kinetic activity compared between peptides,[12],more potent activity than bovine or human NK-lysin peptides
same,time to nearly complete killing,"[1]; in vitro, some bacterial strains",≤ 3 h
same,"release of DNA/RNA (OD 260 nm), words",[13],higher activity
same,Log10TCID50/ml,Rotavirus (strain SA-11); [17],5.61
same,TCID50/ml,Rotavirus (strain SA-11); [17],4.11 × 10^5 TCID50/ml
same,% reduction,"Rotavirus (strain SA-11); 80 μg/ml peptide, versus initial titre",79%
same,inhibition of infection / infectivity,Rotavirus (strain SA-11); Rotavirus (strain SA-11),80%
same,MBC,[2]; ATCC 9027,25 ± 0.013 µg/mL
same,MIC,[2]; ATCC 9027,15 ± 0.012 µg/mL
same,MBC,[3]; S.typhimrium ATCC 14028,30 ± 0.10 µg/mL
same,MIC,[3]; S.typhimrium ATCC 14028,15 ± 0.098 µg/mL
same,MBC,[4]; ATCC 11775,25 ± 0.010 µg/mL
same,MIC,[4]; ATCC 11775,15 ± 0.012 µg/mL
same,MBC,[5]; isolate,15 ± 0.00 µg/mL
same,MIC,[5]; isolate,15 ± 0.00 µg/mL
same,MBC,[6]; ATCC 19615,25 ± 0.010 µg/mL
same,MIC,[6]; ATCC 19615,15 ± 0.00 µg/mL
same,MBC,[7]; patient isolate,25 ± 0.010 µg/mL
same,MIC,[7]; patient isolate,15 ± 0.030 µg/mL
same,MBC,[8]; ATCC 49131,25 ± 0.10 µg/mL
same,MIC,[8]; ATCC 49131,15 ± 0.015 µg/mL
same,MIC,[9]; Sh. sonnei ATCC 25931,15 ± 0.033 µg/mL
same,clear zone diameter,[10]; ATCC 14028,23 mm
same,decrease of colony number,[14],approximately 10 fold
